Columns and labels:
[1] = test system: L4 stage Dirofilaria immitis worms; assay: Screening method to test activity against L4 stage larvae of Dirofilaria immitis (motility, dose response); type: cell-based; conditions: 72 h, read-out: EC50 value (motility of L4 larvae)
[2] = test system: microfilariae of Dirofilaria immitis; assay: Screening method to test activity against microfilaria of Dirofilaria immitis (motility, dose response); type: cell-based; conditions: 72 h, read-out: EC50 value (motility of the microfilaria)

`Cc1nc2c(C(C)C)c(C(=O)N[C@H]3CCOc4ccccc43)cnn2c1C(C)(C)C` [Compound 323, 3-tert-butyl-N-[(4S)-3,4-dihydro-2H-1-benzopyran-4-yl]-8-isopropyl-2-methylimidazo[1,2-b]pyridazine-7-carboxamide] was tested, and the EC50 [1] was 0.1 to 1 µM and the EC50 [2] was 0.01 to 0.1 µM.
For `Cc1nc2c(C(C)C)c(C(=O)N[C@H]3CCOc4ccccc43)cnn2c1N1CCCCC1` [Compound 324, N-[(4S)-3,4-dihydro-2H-1-benzopyran-4-yl]-8-isopropyl-2-methyl-3-(piperidin-1-yl)imidazo[1,2-b]pyridazine-7-carboxamide], the EC50 [1] was 0.001 to 0.01 µM and the EC50 [2] was < 0.001 µM.
`CC(=O)c1nc2c(C(C)C)c(C(=O)N[C@H]3CCOc4ccccc43)cnn2c1-c1cc(Cl)cc(Cl)c1` [Compound 558, 2-acetyl-3-(3,5-dichlorophenyl)-N-[(4S)-3,4-dihydro-2H-1-benzopyran-4-yl]-8-isopropylimidazo[1,2-b]pyridazine] showed an EC50 [2] of 0.01 to 0.1 µM.
For `Cc1nc2c(C(C)C)c(C(=O)N[C@H]3CCOc4ccccc43)cnn2c1C1=CCC(C(F)(F)F)CC1` (stereo partly drawn) [Compound 327, N-[(4S)-3,4-dihydro-2H-1-benzopyran-4-yl]-8-isopropyl-2-methyl-3-[4-(trifluoromethyl)cyclohex-1-en-1-yl]imidazo[1,2-b]pyridazine-7-carboxamide], the EC50 [1] was 0.001 to 0.01 µM.
`CC(C)c1c(C(=O)N[C@H]2CCOc3ccccc32)cnn2c(-c3cc(Cl)cc(Cl)c3)cnc12` [Compound 352, 3-(3,5-dichlorophenyl)-N-[(4S)-3,4-dihydro-2H-1-benzopyran-4-yl]-8-isopropylimidazo[1,2-b]pyridazine-7-carboxamide] was tested, and the EC50 [2] was 0.01 to 0.1 µM.
`Cc1nc2c(C(C)C)c(C(=O)N[C@H]3CCOc4ccccc43)cnn2c1[C@H]1CC[C@@H](C(F)(F)F)CC1` [Compound 326-0, N—((S)-chroman-4-yl)-8-isopropyl-2-methyl-3-((1s,4R)-4-(trifluoromethyl)cyclohexyl)imidazo[1,2-b]pyridazine-7-carboxamide] showed an EC50 [1] of 0.001 to 0.01 µM and an EC50 [2] of 0.01 to 0.1 µM.
Work on `Cc1nc2c(C(C)C)c(NC(=O)[C@@H]3CCOc4ccccc43)cnn2c1-c1cc(F)cc(F)c1` [Compound 320-0, (4R)—N-[3-(3,5-difluorophenyl)-8-isopropyl-2-methylimidazo[1,2-b]pyridazin-7-yl]-3,4-dihydro-2H-1-benzopyran-4-carboxamide] yielded an EC50 [1] of 1 to 10 µM.
With `Cc1nc2c(C(C)C)c(NC(=O)[C@H]3CCOc4ccccc43)cnn2c1-c1cc(F)cc(F)c1` [Compound 320, (4S)—N-[3-(3,5-difluorophenyl)-8-isopropyl-2-methylimidazo[1,2-b]pyridazin-7-yl]-3,4-dihydro-2H-1-benzopyran-4-carboxamide] the EC50 [1] was 0.01 to 0.1 µM.
`O=C(N[C@H]1CCOc2ccccc21)c1cnn2c(-c3cc(Cl)cc(Cl)c3)cnc2c1N1CCOCC1` [Compound 511, 3-(3,5-dichlorophenyl)-N-[(4S)-3,4-dihydro-2H-1-benzopyran-4-yl]-8-(morpholin-4-yl)imidazo[1,2-b]pyridazine-7-carboxamide] gave an EC50 [2] of 0.01 to 0.1 µM.
For `Cc1nc2c(C(C)(C)C)c(C(=O)N[C@H]3CCOc4ccccc43)cnn2c1-c1cc(Cl)cc(Cl)c1` [Compound 306, 8-tert-butyl-3-(3,5-dichlorophenyl)-N-[(4S)-3,4-dihydro-2H-1-benzopyran-4-yl]-2-methylimidazo[1,2-b]pyridazine-7-carboxamide], the EC50 [1] was < 0.001 µM and the EC50 [2] was 0.001 to 0.01 µM.
`Cc1nc2c(C(C)C)c(C(=O)N[C@H]3CCOc4ccccc43)cnn2c1[C@H]1CC[C@H](C(F)(F)F)CC1` [Compound 326, N-[(4S)-3,4-dihydro-2H-1-benzopyran-4-yl]-8-isopropyl-2-methyl-3-[(1r,4r)-4-(trifluoromethyl)cyclohexyl]imidazo[1,2-b]pyridazine-7-carboxamide] showed an EC50 [1] of 0.01 to 0.1 µM.
`Cc1nc2c(C(C)(C)F)c(C(=O)N[C@H]3CCOc4ccccc43)cnn2c1-c1cc(F)cc(F)c1` [Compound 277, 3-(3,5-difluorophenyl)-N-[(4S)-3,4-dihydro-2H-1-benzopyran-4-yl]-8-(2-fluoropropan-2-yl)-2-methylimidazo[1,2-b]pyridazine-7-carboxamide] gave an EC50 [1] of 0.001 to 0.01 µM and an EC50 [2] of 0.001 to 0.01 µM.
`Cc1nc2c(C(C)C)c(C(=O)N[C@H]3CCOc4ccccc43)cnn2c1C#N` [Compound 366, 3-cyano-N-[(4S)-3,4-dihydro-2H-1-benzopyran-4-yl]-8-isopropyl-2-methylimidazo[1,2-b]pyridazine-7-carboxamide] showed an EC50 [1] of 1 to 10 µM.
Molecule `Cc1nc2c(C(C)C)c(C(=O)N[C@H]3CCOc4ccccc43)cnn2c1CC(C)C` [Compound 323-0, N-[(4S)-3,4-dihydro-2H-1-benzopyran-4-yl]-2-methyl-3-(2-methylpropyl)-8-(propan-2-yl)imidazo[1,2-b]pyridazine-7-carboxamide] has an EC50 [1] of 0.01 to 0.1 µM and an EC50 [2] of 0.01 to 0.1 µM.
`Cc1nc2c(C(C)C)c(C(=O)N[C@H]3CCOc4ccccc43)cnn2c1-c1cc(Cl)cc(Cl)c1` [Compound 271, 3-(3,5-dichlorophenyl)-N-[(4S)-3,4-dihydro-2H-1-benzopyran-4-yl]-8-isopropyl-2-methylimidazo[1,2-b]pyridazine-7-carboxamide] was tested, and the EC50 [1] was < 0.001 µM and the EC50 [2] was 0.001 to 0.01 µM.
Work on `C=C(C)c1c(C(=O)N[C@H]2CCOc3ccccc32)cnn2c(-c3cc(F)cc(F)c3)c(C)nc12` [Compound 279, 3-(3,5-difluorophenyl)-N-[(4S)-3,4-dihydro-2H-1-benzopyran-4-yl]-2-methyl-8-(prop-1-en-2-yl)imidazo[1,2-b]pyridazine-7-carboxamide] yielded an EC50 [2] of 0.01 to 0.1 µM.
For `Cc1nc2c(C(C)C)c(C(=O)N[C@H]3CCOc4ccccc43)cnn2c1-c1cc(F)cc(F)c1` [Compound 175, 3-(3,5-difluorophenyl)-N-[(4S)-3,4-dihydro-2H-1-benzopyran-4-yl]-8-isopropyl-2-methylimidazo[1,2-b]pyridazine-7-carboxamide], the EC50 [1] was 0.001 to 0.01 µM and the EC50 [2] was 0.001 to 0.01 µM.
For `CC(C)c1c(C(=O)N[C@H]2CCOc3ccc(F)cc32)cnn2c(Cl)c(-c3cc(Cl)cc(Cl)c3)nc12` [Compound 304-0, 3-chloro-2-(3,5-dichlorophenyl)-N-[(4S)-6-fluoro-3,4-dihydro-2H-1-benzopyran-4-yl]-8-isopropylimidazo[1,2-b]pyridazine-7-carboxamide], the EC50 [1] was 1 to 10 µM.
For `O=C(N[C@H]1CCOc2ccccc21)c1cnn2c(-c3cc(Cl)cc(Cl)c3)c(C(F)(F)F)nc2c1N1CCOCC1` [Compound 450, 3-(3,5-dichlorophenyl)-N-[(4S)-3,4-dihydro-2H-1-benzopyran-4-yl]-8-(morpholin-4-yl)-2-(trifluoromethyl)imidazo[1,2-b]pyridazine-7-carboxamide], the EC50 [2] was 0.1 to 1 µM.
In the case of `Cc1nc2c(C(C)(C)C)c(C(=O)NN3CCOc4ccccc43)cnn2c1-c1cc(Cl)cc(Cl)c1` [Compound 614, 8-tert-butyl-3-(3,5-dichlorophenyl)-N-(2,3-dihydro-1,4-benzoxazin-4-yl)-2-methylimidazo[1,2-b]pyridazine-7-carboxamide], the EC50 [2] is reported as 0.001 to 0.01 µM.
